Data on 33 compounds can be found in US20220249454A1, “INHIBITORS OF MONOCARBOXYLATE TRANSPORTERS FOR CANCER IMMUNOTHERAPY” (NIROGY THERAPEUTICS, INC., priority 2021, published 2022).

The test system of one assay is panel of solid and haemotological tumor cell lines (e.g., Hs578t, SiHa, MDA-MB-231). The assay is described as follows: MTS cell proliferation assay (cytotoxicity). The class given is cell-based. Particulars: Table 1 (Group 1), 72-96 hours, 10 mM lactate medium or RPMI 1640 medium, cell line not stated. Here is the method: The anti-proliferation effect of MCT inhibition was investigated across a panel of solid and haemotological tumor cell lines. Cells were routinely cultured in their appropriate growth medium. On day 1, between 10,000-25,000 cells/well (e.g., Hs578t: 15,000 cells/well, SiHa: 10,000 cells/well, and MDA-MB-231: 25,000 cells/well) were plated into 96-well plates. 100 μL. of phosphate buffered saline solution was added to the external wells to prevent media evaporation. Plates were incubated in growth medium overnight at 37° C. in the presence of 5% CO2. On day 2, dry weight compound stocks were dissolved to a concentration of 10 mM in 100% DMSO. Compounds were further diluted in the assay medium; 10 mM lactate medium (without glucose, pyruvate, and glutamine) or RPMI 1640 medium (without pyruvate and glutamine) to generate a final dose range of 1 nM to 10 μM. Growth medium in the 96-well plate was replaced with the assay medium (10 mM lactate medium or RPMI medium or appropriate medium), and compounds were added to each well in the plate at different concentrations via serial dilution or pre-prepared solutions in assay medium. Plates were then incubated at 37° C. in the presence of 5% CO2 for a further 72-96 hours. On day 2-5, assay media was changed to 100 uL of DMEM/F12 and 20 μL of CellTiter 96 AQ MTS reagent was added to each well and the plate was returned to the incubator for 1-2 hours. MTS is bioreduced by NADPH or NADH produced by dehydrogenase enzymes in metabolically active cells into a coloured formazan product that is soluble in tissue culture medium. The amount of coloured formazan product is directly proportional to the number of living cells in culture. The absorbance of the plates was read on a Spectramax M5e plate reader using […] measurement wavelength. Dose response curves were plotted and IC50 values were calculated using GraphPad Prism. The IC50 value is equivalent to the concentration of compound that causes 50% inhibition of growth calculated from the compound treated signal to the vehicle treated signal.
Cytotoxicity of selected compounds is listed in Table 1, where IC50: A=<1 uM; B=1-10 uM; C=>10 uM; and NT=Not Tested.
For orientation: Tetrazolium dyes change colour on reduction, which living cells bring about.
As usually defined, the IC50 is the concentration that gives 50% inhibition. Read a high IC50 as a need for much substance. The compound `CN(Cc1cccc(F)c1)c1cc2oc(=O)c(C(=O)O)cc2s1` [Compound 1.003, 2-((3-fluorobenzyl)(methyl)amino)-5-oxo-5H-thieno[3,2-b]pyran-6-carboxylic acid] came in with an IC50 of less than 1 µM.

Compound `COc1cccc(CN(C)c2cc3oc(=O)c(C(=O)O)cc3s2)c1` [Compound 1.004, 2-((3-methoxybenzyl)(methyl)amino)-5-oxo-5H-thieno[3,2-b]pyran-6-carboxylic acid] returned an IC50 of less than 1 µM.

In turn, `CN(CC1CCCCC1)c1cc2oc(=O)c(C(=O)O)cc2s1` [Compound 1.005, 2-((cyclohexylmethyl)(methyl)amino)-5-oxo-5H-thieno[3,2-b]pyran-6-carboxylic acid] came in with an IC50 of less than 1 µM.

For the compound `CN(Cc1cccc(C(F)(F)F)c1)c1cc2oc(=O)c(C(=O)O)cc2s1` [Compound 1.006, 2-(methyl(3-(trifluoromethyl)benzyl)amino)-5-oxo-5H-thieno[3,2-b]pyran-6-carboxylic acid], the IC50 was less than 1 µM.

Turning to `CN(Cc1cc(C(F)(F)F)cc(C(F)(F)F)c1)c1cc2oc(=O)c(C(=O)O)cc2s1` [Compound 1.007, 2-((3,5-bis(trifluoromethyl)benzyl)(methyl)amino)-5-oxo-5H-thieno[3,2-b]pyran-6-carboxylic acid], the IC50 was less than 1 µM.

Regarding `CN(CC1CCOCC1)c1cc2oc(=O)c(C(=O)O)cc2s1` [Compound 1.008, 2-(methyl((tetrahydro-2H-pyran-4-yl)methyl)amino)-5-oxo-5H-thieno[3,2-b]pyran-6-carboxylic acid], the half-maximal inhibitory concentration (IC50) was less than 1 µM.

The compound `CN(C(=O)C1CCCCC1)c1cc2oc(=O)c(C(=O)O)cc2s1` [Compound 1.010, 2-(N-methylcyclohexanecarboxamido)-5-oxo-5H-thieno[3,2-b]pyran-6-carboxylic acid] showed an IC50 of less than 1 µM.

Regarding `CN(C(=O)c1ccc(F)cc1)c1cc2oc(=O)c(C(=O)O)cc2s1` [Compound 1.011, 2-(4-fluoro-N-methylbenzamido)-5-oxo-5H-thieno[3,2-b]pyran-6-carboxylic acid], the half-inhibitory concentration (IC50) is less than 1 µM.

`CN1CCC(CN(C)c2cc3oc(=O)c(C(=O)O)cc3s2)CC1` [Compound 1.012, 2-(methyl((1-methylpiperidin-4-yl)methyl)amino)-5-oxo-5H-thieno[3,2-b]pyran-6-carboxylic acid] displayed an IC50 of less than 1 µM.

In the case of `CN(Cc1cccnc1)c1cc2oc(=O)c(C(=O)O)cc2s1` [Compound 1.013, 2-(methyl(pyridin-3-ylmethyl)amino)-5-oxo-5H-thieno[3,2-b]pyran-6-carboxylic acid], the IC50 is less than 1 µM.

In the case of `CN(Cc1cccs1)c1cc2oc(=O)c(C(=O)O)cc2s1` [Compound 1.014, 2-(methyl(thiophen-2-ylmethyl)amino)-5-oxo-5H-thieno[3,2-b]pyran-6-carboxylic acid], the IC50 was less than 1 µM.

For `CN(C(=O)c1cccc(C(F)(F)F)c1)c1cc2oc(=O)c(C(=O)O)cc2s1` [Compound 1.015, 2-[Methyl-(3-trifluoromethyl-benzoyl)-amino]-5-oxo-5H-thieno[3,2-b]pyran-6-carboxylic acid], the 50% inhibitory concentration (IC50) is less than 1 µM.

As for `COc1ccc(C(=O)N(C)c2cc3oc(=O)c(C(=O)O)cc3s2)cc1` [Compound 1.016, 2-[(4-Methoxy-benzoyl)-methyl-amino]-5-oxo-5H-thieno[3,2-b]pyran-6-carboxylic acid], the IC50 was less than 1 µM.

For `CN(C(=O)C1CCOCC1)c1cc2oc(=O)c(C(=O)O)cc2s1` [Compound 1.018, 2-[Methyl-(tetrahydro-pyran-4-carbonyl)-amino]-5-oxo-5H-thieno[3,2-b]pyran-6-carboxylic acid], the 50% inhibitory concentration (IC50) was less than 1 µM.

Consider `COc1cc(C(=O)N(C)c2cc3oc(=O)c(C(=O)O)cc3s2)ccc1F` [Compound 1.019, 2-[(4-Fluoro-3-methoxy-benzoyl)-methyl-amino]-5-oxo-5H-thieno[3,2-b]pyran-6-carboxylic acid], for which the IC50 was less than 1 µM.

On to `CN(C(=O)c1ccc(C(F)(F)F)cc1)c1cc2oc(=O)c(C(=O)O)cc2s1` [Compound 1.020, 2-[Methyl-(4-trifluoromethyl-benzoyl)-amino]-5-oxo-5H-thieno[3,2-b]pyran-6-carboxylic acid], for which the IC50 was less than 1 µM.

In the case of `COc1ccc(CN(C)c2cc3oc(=O)c(C(=O)O)cc3s2)cc1` [Compound 1.021, 2-[(4-Methoxy-benzyl)-methyl-amino]-5-oxo-5H-thieno[3,2-b]pyran-6-carboxylic acid], the IC50 was less than 1 µM.

On to `COc1ccccc1CN(C)c1cc2oc(=O)c(C(=O)O)cc2s1` [Compound 1.022, 2-[(2-Methoxy-benzyl)-methyl-amino]-5-oxo-5H-thieno[3,2-b]pyran-6-carboxylic acid], for which the half-inhibitory concentration (IC50) was less than 1 µM.

In turn, `CN(Cc1ccc(C(F)(F)F)cc1)c1cc2oc(=O)c(C(=O)O)cc2s1` [Compound 1.023, 2-[Methyl-(4-trifluoromethyl-benzyl)-amino]-5-oxo-5H-thieno[3,2-b]pyran-6-carboxylic acid] registered a half-maximal inhibitory concentration (IC50) of less than 1 µM.

Consider `COc1cccc(S(=O)(=O)N(C)c2cc3oc(=O)c(C(=O)O)cc3s2)c1` [Compound 1.024, 2-[(3-Methoxy-benzenesulfonyl)-methyl-amino]-5-oxo-5H-thieno[3,2-b]pyran-6-carboxylic acid], for which the 50% inhibitory concentration (IC50) was less than 1 µM.

As to `COc1ccc(S(=O)(=O)N(C)c2cc3oc(=O)c(C(=O)O)cc3s2)cc1` [Compound 1.025, 2-[(4-Methoxy-benzenesulfonyl)-methyl-amino]-5-oxo-5H-thieno[3,2-b]pyran-6-carboxylic acid], the IC50 is less than 1 µM.

The compound `CN(c1cc2oc(=O)c(C(=O)O)cc2s1)S(=O)(=O)c1ccc(F)cc1` [Compound 1.026, 2-[(4-Fluoro-benzenesulfonyl)-methyl-amino]-5-oxo-5H-thieno[3,2-b]pyran-6-carboxylic acid] returned an IC50 of less than 1 µM.

Consider `CN(c1cc2oc(=O)c(C(=O)O)cc2s1)S(=O)(=O)c1ccc(C(F)(F)F)cc1` [Compound 1.027, 2-[Methyl-(4-trifluoromethyl-benzenesulfonyl)-amino]-5-oxo-5H-thieno[3,2-b]pyran-6-carboxylic acid], for which the IC50 was less than 1 µM.

With `CN(c1cc2oc(=O)c(C(=O)O)cc2s1)S(=O)(=O)c1cccc(C(F)(F)F)c1` [Compound 1.028, 2-[Methyl-(3-trifluoromethyl-benzenesulfonyl)-amino]-5-oxo-5H-thieno[3,2-b]pyran-6-carboxylic acid], the half-inhibitory concentration (IC50) is less than 1 µM.

In turn, `O=C(O)c1cc2sccc2oc1=O` [Compound 1.029, 5-oxo-5H-thieno[3,2-b]pyran-6-carboxylic acid] yielded a half-maximal inhibitory concentration (IC50) of 1 to 10 µM.

The assay is the same for the next values; noted with them: Table 2 (Group 2), 72-96 hours, 10 mM lactate medium or RPMI 1640 medium, cell line not stated.
The compound `CN(C(=O)Nc1ccccc1Cl)c1cc2oc(=O)c(C(=O)O)cc2s1` [Compound 2.001, 2-(3-(2-chlorophenyl)-1-methylureido)-5-oxo-5H-thieno[3,2-b]pyran-6-carboxylic acid] registered an IC50 of less than 1 µM.

As to `COc1ccccc1NC(=O)N(C)c1cc2oc(=O)c(C(=O)O)cc2s1` [Compound 2.002, 2-(3-(2-methoxyphenyl)-1-methylureido)-5-oxo-5H-thieno[3,2-b]pyran-6-carboxylic acid], the IC50 was less than 1 µM.

Compound `COc1cccc(NC(=O)N(C)c2cc3oc(=O)c(C(=O)O)cc3s2)c1` [Compound 2.003, 2-(3-(3-methoxyphenyl)-1-methylureido)-5-oxo-5H-thieno[3,2-b]pyran-6-carboxylic acid] had a half-maximal inhibitory concentration (IC50) of less than 1 µM.

For the compound `CN(C(=O)Nc1ccc(Cl)cc1)c1cc2oc(=O)c(C(=O)O)cc2s1` [Compound 2.004, 2-(3-(4-chlorophenyl)-1-methylureido)-5-oxo-5H-thieno[3,2-b]pyran-6-carboxylic acid], the IC50 was less than 1 µM.

As to `CN(C(=O)Nc1ccc(F)cc1)c1cc2oc(=O)c(C(=O)O)cc2s1` [Compound 2.005, 2-(3-(4-fluorophenyl)-1-methylureido)-5-oxo-5H-thieno[3,2-b]pyran-6-carboxylic acid], the IC50 was less than 1 µM.

Regarding `COc1ccc(NC(=O)N(C)c2cc3oc(=O)c(C(=O)O)cc3s2)cc1OC` [Compound 2.006, 2-(3-(3,4-dimethoxyphenyl)-1-methylureido)-5-oxo-5H-thieno[3,2-b]pyran-6-carboxylic acid], the half-maximal inhibitory concentration (IC50) was less than 1 µM.

Turning to `CN(C(=O)NC1CCCCC1)c1cc2oc(=O)c(C(=O)O)cc2s1` [Compound 2.007, 2-(3-cyclohexyl-1-methylureido)-5-oxo-5H-thieno[3,2-b]pyran-6-carboxylic acid], the IC50 is less than 1 µM.

Regarding `COc1ccc(NC(=O)N(C)c2cc3oc(=O)c(C(=O)O)cc3s2)cc1` [Compound 2.008, 2-(3-(4-methoxyphenyl)-1-methylureido)-5-oxo-5H-thieno[3,2-b]pyran-6-carboxylic acid], the half-maximal inhibitory concentration (IC50) is less than 1 µM.
